Assay results: patent US4075409A, “Benzophenone derivatives” (Cassella Farbwerke Mainkur Aktiengesellschaft, priority 1973, dated 1978)
Counter-ions that a name gives are not always drawn.

Columns and labels:
[1] = LD50 mice intraperitoneally; conditions: mouse, in vivo, ip, benzophenones as hydrochlorides
Protocol: (§1) The benzophenone derivatives were tested in the form of their hydrochlorides.

[2] = tested on: albino mice; assay: climbing test, central depressant (sedative) action on albino mice; type: in vivo; conditions: Mus musculus, po, read-out: Central depressant action in % (percentage of animals which no longer embark on the climbing work); for responders at 8 mg/kg: 8.0 mg/kg orally
Protocol: The pharmacological examination of the central depressant (sedative) action was carried out on albino mice with the aid of the climbing test described by P. K. KNEIP: Arch. int. pharmacodyn 126, 238 (1960) and R. DOMENJOZ and W. THEOBALD: Arch. int. pharmacodyn 120, 450 (1959).
In the final column of the table, the percentage of the experimental animals which no longer embark on the climbing work, which is normally readily undertaken, is given under the heading "Central depressant action in %".
as §1

Row | SMILES | LD50 [1] | responders at 8 mg/kg ([2]; as hydrochloride) | responders at 70 mg/kg ([2]; 70 mg/kg orally, comparison preparation) | responders at 10 mg/kg ([2]; 10.0 mg/kg orally, as hydrochloride) | responders at 4 mg/kg ([2]; 4.0 mg/kg orally, as hydrochloride)
1 | CC(Cc1ccccc1)NCC(=O)N(C)c1ccc(Cl)cc1C(=O)c1ccccc1 (racemic) [DL-2-(5-phenyl-N-methyl-4-methyl-3-aza-pentanamido)-5-chlorobenzophenone hydrochloride] | 240 mg/kg | 40% | – | – | –
2 | CC(Cc1ccccc1)NCC(=O)N(C)c1ccc([N+](=O)[O-])cc1C(=O)c1ccccc1 (racemic) [DL-2-(5-Phenyl-N-methyl-4-methyl-3-aza-pentanamido)-5-nitrobenzophenone hydrochloride] | 44 mg/kg | 50% | – | – | –
3 | CN(CC(=O)Nc1ccc(Cl)cc1C(=O)c1ccccc1)C(=S)Nc1ccccc1 [2-(3-Phenylaminothiocarbonyl-3-aza-3-methyl-propanamido)-5-chlorobenzophenone] | > 1000 mg/kg | 50% | – | – | –
4 | CCCCNC(=O)CCN(CCCC)CC(=O)N(C)c1ccc([N+](=O)[O-])cc1C(=O)c1ccccc1 [2-(5-n-Butylaminocarbonyl-N-methyl-3-n-butyl-3-aza-pentanamido)-5-nitro-benzophenone] | 500 mg/kg | 50% | – | – | –
5 | CCCC(C)(COC(N)=O)COC(N)=O [Meprobamate, reference compound] | – | – | 50% | – | –
6 | CC(Cc1ccccc1)NCC(=O)N(C)c1ccc(Cl)cc1C(=O)c1ccccc1Cl (racemic) [DL-2-(5-phenyl-N-methyl-4-methyl-3-aza-pentanamido)-2',5-dichlorobenzophenone hydrochloride] | 24 mg/kg | 70% | – | – | –
7 | CCOC(=O)NCC(=O)N(C)c1ccc([N+](=O)[O-])cc1C(=O)c1ccccc1 [2-(3-Ethoxycarbonyl)-N-methyl-3-aza-propanamido)-5-nitro-benzophenone] | 500 mg/kg | – | – | 70% | –
8 | CCOC(=O)NCC(=O)N(C)c1ccc(Cl)cc1C(=O)c1ccccc1Cl [2-(3-Ethoxycarbonyl-N-methyl-3-aza-propanamido)-2',5-dichlorobenzophenone] | 240 mg/kg | 90% | – | – | –
9 | CCOC(=O)NCC(=O)N(C)c1ccc(Cl)cc1C(=O)c1ccccc1.Cl [2-(3-ethoxycarbonyl-N-methyl-3-aza-propanamido)-5-chlorobenzophenone hydrochloride] | 270 mg/kg | – | – | – | 30%
